In PubChem BioAssay (NCI):
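Following 48 hours of exposure in 96-well plates, responses at five concentrations were used to interpolate endpoints linearly. TGI marks complete inhibition of growth.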

Tests used:
Assay in all cases: DTP human tumour cell line panel, 48 h
[1] = system: RXF-631 renal
[2] = system: M19-MEL melanoma
[3] = system: DMS 114 small cell lung
[4] = system: KM20L2 colon
[5] = system: XF 498 CNS
[6] = system: HOP-18 NSCLC
[7] = system: SNB-78 CNS

## CC(C)N1CC2CC(CN(C(=O)c3ccccc3)C2)C1
[1]
  TGI: > 100 µM
[2]
  TGI: > 100 µM
[3]
  TGI: > 100 µM
[4]
  TGI: > 100 µM
[5]
  TGI: > 100 µM
[6]
  TGI: > 100 µM

## COC(=O)c1ccccc1NC(=O)C(=O)NNC(=O)c1ccncc1
[1]
  TGI: > 100 µM
[2]
  TGI: > 100 µM
[3]
  TGI: > 100 µM
[4]
  TGI: > 100 µM
[5]
  TGI: > 100 µM
[6]
  TGI: > 100 µM

## COC(=O)C(=O)C(C(=O)C(=O)Nc1cccc(C(C)=O)c1)c1nc2ccccc2[nH]c1=O (stereo unspecified)
[1]
  TGI: > 100 µM
[2]
  TGI: > 100 µM
[3]
  TGI: > 100 µM
[4]
  TGI: > 100 µM
[6]
  TGI: > 100 µM

## CCC1=C(C(C)=O)[C@@H]2CCCCC[C@@H](C(=O)OC)C2C1=O (stereo partly specified)
[7]
  TGI: > 100 µM
[2]
  TGI: > 100 µM
[3]
  TGI: > 100 µM
[4]
  TGI: > 100 µM
[5]
  TGI: > 100 µM
[6]
  TGI: > 100 µM

## CCOC(=O)C1(C#N)C(c2ccccc2)CC(O)(c2ccc(Cl)cc2)C(C(=O)c2ccc(Cl)cc2)C1c1ccccc1 (stereo unspecified)
[7]
  TGI: > 100 µM
[2]
  TGI: > 100 µM
[3]
  TGI: > 100 µM
[4]
  TGI: > 100 µM
[5]
  TGI: > 100 µM
[6]
  TGI: > 100 µM

## CS(=O)(=O)CSCSSCS(C)(=O)=O
[7]
  TGI: > 100 µM
[1]
  TGI: > 100 µM
[2]
  TGI: > 100 µM
[3]
  TGI: > 92.1 µM
[4]
  TGI: > 100 µM
[5]
  TGI: 75.6 µM
[6]
  TGI: > 100 µM

## COC(=O)[C@@H]1CCCCC[C@H]2C(CO)=C(C)C(=O)C12 (stereo partly specified)
[7]
  TGI: > 100 µM
[2]
  TGI: > 100 µM
[3]
  TGI: > 100 µM
[4]
  TGI: > 100 µM
[5]
  TGI: > 100 µM
[6]
  TGI: > 100 µM

## COC(=O)C1=C(C(=O)OC)SC(=CC#CC=C2SC(C(=O)OC)=C(C(=O)OC)S2)S1
[7]
  TGI: 48.6 µM
[2]
  TGI: > 100 µM
[3]
  TGI: > 60.7 µM
[4]
  TGI: 71.6 µM
[5]
  TGI: 19.1 µM
[6]
  TGI: 45.9 µM

## O=C(N/N=C(/CCN1CCCC1)CC(c1ccccc1)c1c(O)c2ccccc2oc1=O)c1ccncc1 (stereo unspecified)
[7]
  TGI: > 100 µM
[2]
  TGI: > 100 µM
[4]
  TGI: > 100 µM
[6]
  TGI: > 100 µM

## CN(C)/N=C(/c1nc2ccc(Cl)cc2[nH]c1=O)C(O)c1ccc(C(O)/C(=N\N(C)C)c2nc3ccc(Cl)cc3[nH]c2=O)cc1 (stereo unspecified)
[1]
  TGI: > 100 µM
[2]
  TGI: > 100 µM
[3]
  TGI: > 100 µM
[4]
  TGI: > 100 µM
